# From patent US4048299A, “Anticaries confectionaries and oral health products” (William Wrigley, Jr. Co., priority 1970, dated 1977)
# Tests used:
# Streptococcus sp. FA-1 = test: Acid production inhibition, broth-tube technique; details: single agent
# From the text: (§4) The data was compiled through well-known broth tube analysis techniques.
# (a)Measured by broth-tube technique.
# Streptococcus spp. KI-R = test: Growth inhibition by aldehydes in product vehicles, pour-plate technique; assay type: cell-based; details: 1 to 5 percent aldehyde
# In short: (§1)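 Aldehydes (1 to 5 percent by weight) were formulated into syrups, candies, mouthwash, toothpaste or toothpowder, added directly or as aqueous extracts to medium without a carbon source mixed 1:1 with filter-sterilized human saliva. Sugar came from the product or added sucrose. Growth over up to 24 hours was read by pour-plate count.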
# [1] = test system: Mixed human oral microorganisms; test: as above; assay type: cell-based; details: 1 to 5 percent aldehyde
# In short: as §1
# [2] = test system: Lactobacillus casei ATCC 4646; test: as above; assay type: cell-based; details: 1 to 5 percent aldehyde
# In short: as §1
# [3] = In vivo caries evaluation, laboratory animals (summary); details: one percent level in diet
# From the text: (§2) Standard laboratory techniques were used to complie the data presented. In each case the aldehyde was incorporated into each specimen's food in a one percent, by weight, quantity, over a period of several weeks. In all cases, caries reduction was noted.
# (§3) The aldehydes tested in vivo were pyruvaldehyde, d,1-glyceraldehyde, crystalline dimer, glycolaldehyde, octanaldehyde, nonanaldehyde, decanaldehyde, undecylenic aldehyde, and lauric aldehyde. The polyaldehydes tested were dialdehyde starch, dialdehyde starch 50 percent oxidized, dialdehyde starch 90 percent oxidized, and dialdehyde galactomannan gum.
# oral microorganisms = test: Acid production inhibition in vitro (summary); assay type: cell-based; details: in words, summary of tables
# Procedure: Other in vitro evaluations utilized a broth tube analysis of representative anticaries aldehydes incorporated in the vehicles of this invention against cultures of acid producing microorganisms normally present in the mouth. Standard laboratory procedures were utilized throughout to evaluate the acid production inhibition and growth inhibition over the incubation time of up to 24 hours.
# Lactobacillus casei = test: Acid production inhibition, broth-tube technique; details: single agent
# From the text: as §4
# (a)Measured by broth-tube technique.
# [4] = In vivo caries evaluation, Osborne-Mendel strain 1 rat; set-up: species or system rat (Osborne-Mendel strain 1); Caries Score, Mean Incidence / Caries Score, Mean Extent: scale not given here; details: Table I, 90 days; for Caries Score, Mean Incidence / Caries Score, Mean Extent: 1 percent in diet; for Caries Score, Mean Incidence: RCD control 23.3 (pyruvaldehyde test), 12.85 (glycolaldehyde test); for Caries Score, Mean Extent: RCD control 64.8 (pyruvaldehyde test), 35.45 (glycolaldehyde test); for Caries Extent Reduction, statistical evaluation / Caries Incidence Reduction, statistical evaluation: Student's test, 95 percent confidence limit
# From the text: as §2, §3
# ^(a) Agents were incorporated in the diet at a 1 percent level.
# [5] = test system: Lactobacillus casei ATCC 4646; test: Acid production inhibition by aldehydes in product vehicles, broth-tube technique; assay type: cell-based; details: 1 to 5 percent aldehyde
# [6] = in compressed candy tablet, 2 h incubation
# [7] = in compressed candy tablet, 5 h incubation
# [8] = in compressed candy tablet, 24 h incubation
# [9] = in dextrose syrup, 2 h incubation
# [10] = in dextrose syrup, 5 h incubation
# [11] = in dextrose syrup, 24 h incubation
# [12] = in sucrose syrup, 2 h incubation
# [13] = in sucrose syrup, 5 h incubation
# [14] = in sucrose syrup, 24 h incubation
# [15] = in tooth powder (aqueous extract), 2 h incubation
# [16] = in tooth powder (aqueous extract), 5 h incubation
# [17] = in tooth powder (aqueous extract), 24 h incubation
# [18] = in toothpaste (aqueous extract), 2 h incubation
# [19] = in toothpaste (aqueous extract), 5 h incubation
# [20] = in toothpaste (aqueous extract), 24 h incubation
compound,measurement,setting,value
O=CCO [Glycolaldehyde],Acid Production Inhibition,Streptococcus sp. FA-1; 0.02 percent,19%
same,Acid Production Inhibition,Streptococcus sp. FA-1; 0.03 percent,39%
same,Acid Production Inhibition,Streptococcus sp. FA-1; 0.04 percent,72%
same,Growth Inhibition,Streptococcus spp. KI-R; [6],99.9 Per Cent
same,Growth Inhibition,Streptococcus spp. KI-R; [7],N.S.
same,Growth Inhibition,Streptococcus spp. KI-R; [8],N.S.
same,Growth Inhibition,Streptococcus spp. KI-R; [9],99.1 Per Cent
same,Growth Inhibition,Streptococcus spp. KI-R; [10],100 Per Cent
same,Growth Inhibition,Streptococcus spp. KI-R; [11],100 Per Cent
same,Growth Inhibition,"Streptococcus spp. KI-R; in mouthwash, 2 h incubation",99.98 Per cent
same,Growth Inhibition,"Streptococcus spp. KI-R; in mouthwash, 5 h incubation",100 Per cent
same,Growth Inhibition,"Streptococcus spp. KI-R; in mouthwash, 24 h incubation",100 Per cent
same,Growth Inhibition,Streptococcus spp. KI-R; [12],80 Per cent
same,Growth Inhibition,Streptococcus spp. KI-R; [13],> 99.9 Per cent
same,Growth Inhibition,Streptococcus spp. KI-R; [14],> 99.99 Per cent
same,Growth Inhibition,Streptococcus spp. KI-R; [15],N.S.
same,Growth Inhibition,Streptococcus spp. KI-R; [16],93.3 Per cent
same,Growth Inhibition,Streptococcus spp. KI-R; [17],100 Per cent
same,Growth Inhibition,Streptococcus spp. KI-R; [18],0 Per cent
same,Growth Inhibition,Streptococcus spp. KI-R; [19],N.S.
same,Growth Inhibition,Streptococcus spp. KI-R; [20],N.S.
same,Growth Inhibition,[1]; [6],99.3 Per Cent
same,Growth Inhibition,[1]; [7],100 Per Cent
same,Growth Inhibition,[1]; [8],100 Per Cent
same,Growth Inhibition,[1]; [9],99 Per Cent
same,Growth Inhibition,[1]; [10],100 Per Cent
same,Growth Inhibition,[1]; [11],91.4 Per Cent
same,Growth Inhibition,"[1]; in mouthwash, 2 h incubation",99.7 Per cent
same,Growth Inhibition,"[1]; in mouthwash, 5 h incubation",100 Per cent
same,Growth Inhibition,"[1]; in mouthwash, 24 h incubation",99.90 Per cent
same,Growth Inhibition,[1]; [12],98 Per cent
same,Growth Inhibition,[1]; [13],> 99.99 Per cent
same,Growth Inhibition,[1]; [14],> 99 Per cent
same,Growth Inhibition,[1]; [15],N.S.
same,Growth Inhibition,[1]; [16],99.97 Per cent
same,Growth Inhibition,[1]; [17],100 Per cent
same,Growth Inhibition,[1]; [18],N.S.
same,Growth Inhibition,[1]; [19],N.S.
same,Growth Inhibition,[1]; [20],100 Per cent
same,Growth Inhibition,[2]; [6],N.S.
same,Growth Inhibition,[2]; [7],97.3 Per Cent
same,Growth Inhibition,[2]; [8],100 Per Cent
same,Growth Inhibition,[2]; [9],N.S.
same,Growth Inhibition,[2]; [10],98 Per Cent
same,Growth Inhibition,[2]; [11],100 Per Cent
same,Growth Inhibition,[2]; [12],N.S.
same,Growth Inhibition,[2]; [13],93 Per cent
same,Growth Inhibition,[2]; [14],> 99.99 Per cent
same,Growth Inhibition,[2]; [15],N.S.
same,Growth Inhibition,[2]; [16],N.S.
same,Growth Inhibition,[2]; [17],99.99 Per cent
same,Growth Inhibition,[2]; [18],0 Per cent
same,Growth Inhibition,[2]; [19],N.S.
same,Growth Inhibition,[2]; [20],100 Per cent
same,Anticaries effect in laboratory animals,[3],significant anticaries effects
same,Acid Production Inhibition,oral microorganisms,excellent acid production inhibition
same,Acid Production Inhibition,Lactobacillus casei; 0.02 percent,18%
same,Acid Production Inhibition,Lactobacillus casei; 0.025 percent,23%
same,Acid Production Inhibition,Lactobacillus casei; 0.03 percent,27%
same,"Caries Score, Mean Incidence",[4],5.53
same,"Caries Score, Mean Extent",[4],13.19
same,"Caries Extent Reduction, statistical evaluation",[4],Significant
same,"Caries Incidence Reduction, statistical evaluation",[4],Significant
same,Acid Production Inhibition,[5]; [6],0 Per Cent
same,Acid Production Inhibition,[5]; [7],0 Per Cent
same,Acid Production Inhibition,[5]; [8],64 Per Cent
same,Acid Production Inhibition,[5]; [9],33 Per Cent
same,Acid Production Inhibition,[5]; [10],3 Per Cent
same,Acid Production Inhibition,[5]; [11],85 Per Cent
same,Acid Production Inhibition,[5]; [12],0 Per cent
same,Acid Production Inhibition,[5]; [13],0 Per cent
same,Acid Production Inhibition,[5]; [14],86 Per cent
same,Acid Production Inhibition,[5]; [15],0 Per cent
same,Acid Production Inhibition,[5]; [16],0 Per cent
same,Acid Production Inhibition,[5]; [17],73 Per cent
same,Acid Production Inhibition,[5]; [18],0 Per cent
same,Acid Production Inhibition,[5]; [19],0 Per cent
same,Acid Production Inhibition,[5]; [20],0 Per cent
CC(=O)C=O [Pyruvaldehyde],Acid Production Inhibition,Streptococcus sp. FA-1; 0.001 percent,10%
same,Acid Production Inhibition,Streptococcus sp. FA-1; 0.002 percent,35%
same,Growth Inhibition,Streptococcus spp. KI-R; [6],N.S.
same,Growth Inhibition,Streptococcus spp. KI-R; [7],N.S.
same,Growth Inhibition,Streptococcus spp. KI-R; [8],N.S.
same,Growth Inhibition,Streptococcus spp. KI-R; [9],100 Per Cent
same,Growth Inhibition,Streptococcus spp. KI-R; [10],100 Per Cent
same,Growth Inhibition,Streptococcus spp. KI-R; [11],100 Per Cent
same,Growth Inhibition,"Streptococcus spp. KI-R; in hard candy, 2 h incubation",> 99.99 Per Cent
same,Growth Inhibition,"Streptococcus spp. KI-R; in hard candy, 5 h incubation",> 99.99 Per Cent
same,Growth Inhibition,"Streptococcus spp. KI-R; in hard candy, 24 h incubation",100 Per Cent
same,Growth Inhibition,"Streptococcus spp. KI-R; in mouthwash, 2 h incubation",> 99.99 Per cent
same,Growth Inhibition,"Streptococcus spp. KI-R; in mouthwash, 5 h incubation",> 99.99 Per cent
same,Growth Inhibition,"Streptococcus spp. KI-R; in mouthwash, 24 h incubation",100 Per cent
same,Growth Inhibition,Streptococcus spp. KI-R; [12],> 99.9 Per cent
same,Growth Inhibition,Streptococcus spp. KI-R; [13],> 99.99 Per cent
same,Growth Inhibition,Streptococcus spp. KI-R; [14],100 Per cent
same,Growth Inhibition,Streptococcus spp. KI-R; [15],100 Per cent
same,Growth Inhibition,Streptococcus spp. KI-R; [16],100 Per cent
same,Growth Inhibition,Streptococcus spp. KI-R; [17],100 Per cent
same,Growth Inhibition,Streptococcus spp. KI-R; [18],N.S.
same,Growth Inhibition,Streptococcus spp. KI-R; [19],N.S.
same,Growth Inhibition,Streptococcus spp. KI-R; [20],N.S.
same,Growth Inhibition,[1]; [6],99.7 Per Cent
same,Growth Inhibition,[1]; [7],99.99 Per Cent
same,Growth Inhibition,[1]; [8],99.98 Per Cent
same,Growth Inhibition,[1]; [9],99.8 Per Cent
same,Growth Inhibition,[1]; [10],100 Per Cent
same,Growth Inhibition,[1]; [11],99.99 Per Cent
same,Growth Inhibition,"[1]; in hard candy, 2 h incubation",99.5 Per Cent
same,Growth Inhibition,"[1]; in hard candy, 5 h incubation",100 Per Cent
same,Growth Inhibition,"[1]; in hard candy, 24 h incubation",N.S.
same,Growth Inhibition,"[1]; in mouthwash, 2 h incubation",99.0 Per cent
same,Growth Inhibition,"[1]; in mouthwash, 5 h incubation",100 Per cent
same,Growth Inhibition,"[1]; in mouthwash, 24 h incubation",99.7 Per cent
same,Growth Inhibition,[1]; [12],> 99.9 Per cent
same,Growth Inhibition,[1]; [13],> 99.99 Per cent
same,Growth Inhibition,[1]; [14],N.S.
same,Growth Inhibition,[1]; [15],N.S.
same,Growth Inhibition,[1]; [16],99.99 Per cent
same,Growth Inhibition,[1]; [17],99.94 Per cent
same,Growth Inhibition,[1]; [18],100 Per cent
same,Growth Inhibition,[1]; [19],N.S.
same,Growth Inhibition,[1]; [20],100 Per cent
same,Growth Inhibition,[2]; [6],99.5 Per Cent
same,Growth Inhibition,[2]; [7],100 Per Cent
same,Growth Inhibition,[2]; [8],100 Per Cent
same,Growth Inhibition,[2]; [9],99.4 Per Cent
same,Growth Inhibition,[2]; [10],99.99 Per Cent
same,Growth Inhibition,[2]; [11],100 Per Cent
same,Growth Inhibition,"[2]; in hard candy, 2 h incubation",92 Per Cent
same,Growth Inhibition,"[2]; in hard candy, 5 h incubation",99.85 Per Cent
same,Growth Inhibition,"[2]; in hard candy, 24 h incubation",100 Per Cent
same,Growth Inhibition,[2]; [12],97.5 Per cent
same,Growth Inhibition,[2]; [13],> 99.99 Per cent
same,Growth Inhibition,[2]; [14],> 99.99 Per cent
same,Growth Inhibition,[2]; [15],N.S.
same,Growth Inhibition,[2]; [16],98 Per cent
same,Growth Inhibition,[2]; [17],100 Per cent
same,Growth Inhibition,[2]; [18],N.S.
same,Growth Inhibition,[2]; [19],N.S.
same,Growth Inhibition,[2]; [20],100 Per cent
same,Anticaries effect in laboratory animals,[3],significant anticaries effects
same,Acid Production Inhibition,oral microorganisms,excellent acid production inhibition
same,Acid Production Inhibition,Lactobacillus casei; 0.005 percent,24%
same,Acid Production Inhibition,Lactobacillus casei; 0.0075 percent,57%
same,"Caries Score, Mean Incidence",[4],8.6
same,"Caries Score, Mean Extent",[4],21.7
same,"Caries Extent Reduction, statistical evaluation",[4],Significant
same,"Caries Incidence Reduction, statistical evaluation",[4],Significant
same,Acid Production Inhibition,[5]; [6],0 Per Cent
same,Acid Production Inhibition,[5]; [7],0 Per Cent
same,Acid Production Inhibition,[5]; [8],75 Per Cent
same,Acid Production Inhibition,[5]; [9],52 Per Cent
same,Acid Production Inhibition,[5]; [10],33 Per Cent
same,Acid Production Inhibition,[5]; [11],88 Per Cent
same,Acid Production Inhibition,"[5]; in hard candy, 2 h incubation",0 Per Cent
same,Acid Production Inhibition,"[5]; in hard candy, 5 h incubation",22 Per Cent
same,Acid Production Inhibition,"[5]; in hard candy, 24 h incubation",90 Per Cent
same,Acid Production Inhibition,[5]; [12],0 Per cent
same,Acid Production Inhibition,[5]; [13],20.0 Per cent
same,Acid Production Inhibition,[5]; [14],89.6 Per cent
same,Acid Production Inhibition,[5]; [15],0 Per cent
same,Acid Production Inhibition,[5]; [16],0 Per cent
same,Acid Production Inhibition,[5]; [17],71 Per cent
same,Acid Production Inhibition,[5]; [18],0 Per cent
same,Acid Production Inhibition,[5]; [19],0 Per cent
same,Acid Production Inhibition,[5]; [20],0 Per cent
